The supplement of paper PMC6045584
± gives the standard deviation of the averaged measurements.

Tests used:
GEFITINIB = compound: COc1cc2ncnc(Nc3ccc(F)c(Cl)c3)c2cc1OCCCN1CCOCC1 [GEFITINIB]; assay: surviving fraction relative to DMSO-only wells; higher = less growth inhibition; settings: exposure time: 5 days
Method in brief: (§1)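 Log-phase tumour cells were seeded at 250–500 per well in 384-well plates and, from 24 hours after seeding, exposed continuously for five days to inhibitors at 0.5, 1, 5, 10, 50, 100, 500 and 1000 nM. Surviving fraction is CellTiter-Glo luminescence normalised to the median of DMSO-only wells. Luminescence was measured after 10 minutes at room temperature, and only lines screened three times with replicate Pearson r >0.7 and median Z' >0.3 were kept.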

PACLITAXEL = compound: CC(=O)O[C@H]1C(=O)[C@@]2(C)[C@H]([C@H](OC(=O)c3ccccc3)[C@]3(O)C[C@H](OC(=O)[C@H](O)[C@@H](NC(=O)c4ccccc4)c4ccccc4)C(C)=C1C3(C)C)[C@]1(OC(C)=O)CO[C@@H]1C[C@@H]2O [PACLITAXEL]; assay: as above; settings: exposure time: 5 days
Method in brief: as §1

Test System | surviving fraction (GEFITINIB; 0.5 nM) | surviving fraction (GEFITINIB; 1 nM) | surviving fraction (GEFITINIB; 5 nM) | surviving fraction (GEFITINIB; 10 nM) | surviving fraction (GEFITINIB; 50 nM) | surviving fraction (GEFITINIB; 100 nM) | surviving fraction (GEFITINIB; 500 nM) | surviving fraction (GEFITINIB; 1000 nM) | surviving fraction (PACLITAXEL; 0.5 nM) | surviving fraction (PACLITAXEL; 1 nM) | surviving fraction (PACLITAXEL; 5 nM) | surviving fraction (PACLITAXEL; 10 nM) | surviving fraction (PACLITAXEL; 50 nM) | surviving fraction (PACLITAXEL; 100 nM) | surviving fraction (PACLITAXEL; 500 nM) | surviving fraction (PACLITAXEL; 1000 nM)
HCC202 BREAST | 1.4 ± 0.62 | 1.2 ± 0.23 | 1.35 ± 0.21 | 1.06 ± 0.14 | 1.32 ± 0.14 | 1.11 ± 0.37 | 0.542 ± 0.13 | 0.345 ± 0.013 | 1.15 ± 0.51 | 0.655 ± 0.15 | 0.377 ± 0.091 | 0.364 ± 0.12 | 0.362 ± 0.027 | 0.362 ± 0.047 | 0.352 ± 0.032 | 0.327 ± 0.098
HCC1395 BREAST | 1.07 ± 0.057 | 1.07 ± 0.035 | 1.18 ± 0.12 | 1.22 ± 0.17 | 1.24 ± 0.059 | 1.21 ± 0.045 | 1.2 ± 0.085 | 1.11 ± 0.039 | 0.749 ± 0.14 | 0.821 ± 0.065 | 0.782 ± 0.033 | 0.547 ± 0.11 | 0.419 ± 0.16 | 0.362 ± 0.054 | 0.396 ± 0.088 | 0.405 ± 0.051
HCC1806 BREAST | 1.02 ± 0.11 | 1.08 ± 0.11 | 1.19 ± 0.1 | 1.2 ± 0.11 | 1.04 ± 0.14 | 0.925 ± 0.098 | 0.62 ± 0.069 | 0.61 ± 0.01 | 0.89 ± 0.17 | 0.1833 ± 0.0015 | 0.0437 ± 0.0038 | 0.0357 ± 0.0032 | 0.0307 ± 0.0057 | 0.0207 ± 0.0029 | 0.0253 ± 0.0031 | 0.021 ± 0.0017
HCC1954 BREAST | 1.25 ± 0.17 | 1.25 ± 0.25 | 1.01 ± 0.029 | 1.2 ± 0.13 | 0.855 ± 0.011 | 0.702 ± 0.0081 | 0.459 ± 0.064 | 0.408 ± 0.016 | 0.6985 ± 0.00071 | 0.569 ± 0.0021 | 0.199 ± 0.0014 | 0.094 ± 0.0057 | 0.0897 ± 0.0025 | 0.071 ± 0.0028 | 0.0592 ± 0.012 | 0.0653 ± 0.015
HMLE3 BREAST | 1.11 ± 0.075 | 1.03 ± 0.016 | 1.07 ± 0.016 | 1.08 ± 0.031 | 1.04 ± 0.051 | 0.963 ± 0.07 | 0.904 ± 0.1 | 0.843 ± 0.083 | 0.89 ± 0.065 | 0.816 ± 0.1 | 0.247 ± 0.019 | 0.0813 ± 0.0093 | 0.05 ± 0.007 | 0.0377 ± 0.0042 | 0.034 ± 0.0027 | 0.0287 ± 0.0011
HMT3552 BREAST | 0.987 ± 0.065 | 1 ± 0.052 | 0.97 ± 0.038 | 0.952 ± 0.018 | 0.946 ± 0.048 | 0.94 ± 0.036 | 0.94 ± 0.017 | 0.856 ± 0.043 | 0.568 | 0.133 | 0.09 | 0.091 | 0.106 | 0.099 | 0.1 | 0.094
HOS BONE | 1.01 ± 0.02 | 1.034 ± 0.0087 | 1.041 ± 0.01 | 1.04 ± 0.032 | 1.06 ± 0.033 | 1.07 ± 0.031 | 1.01 ± 0.021 | 0.973 ± 0.013 | 1.01 ± 0.011 | 0.95 ± 0.01 | 0.085 ± 0.003 | 0.0507 ± 0.004 | 0.0357 ± 0.004 | 0.025 ± 0.001 | 0.0223 ± 0.0011 | 0.0217 ± 0.0015
HS57T BREAST | 0.973 ± 0.033 | 0.994 ± 0.088 | 1.01 ± 0.024 | 1.02 ± 0.05 | 1.05 ± 0.059 | 1.02 ± 0.061 | 1.01 ± 0.065 | 0.9383 ± 0.0032 | 0.773 ± 0.045 | 0.478 ± 0.058 | 0.0727 ± 0.0025 | 0.0563 ± 0.0021 | 0.0457 ± 0.0042 | 0.0463 ± 0.0065 | 0.0353 ± 0.0021 | 0.0403 ± 0.007
HS578T BREAST | 0.972 ± 0.039 | 0.906 ± 0.078 | 0.965 ± 0.095 | 0.878 ± 0.12 | 0.996 ± 0.13 | 0.819 ± 0.075 | 1.07 ± 0.1 | 0.899 ± 0.23 | 0.428 ± 0.043 | 0.246 ± 0.019 | 0.127 ± 0.0038 | 0.108 ± 0.011 | 0.126 ± 0.013 | 0.109 ± 0.0027 | 0.11 ± 0.01 | 0.101 ± 0.01
HU09 BONE | 0.997 ± 0.069 | 0.921 ± 0.055 | 0.972 ± 0.023 | 1.02 ± 0.079 | 1.1 ± 0.018 | 1.09 ± 0.075 | 1.1 ± 0.16 | 0.952 ± 0.1 | 0.811 ± 0.11 | 0.45 ± 0.011 | 0.0977 ± 0.0081 | 0.0603 ± 0.0055 | 0.0367 ± 0.0029 | 0.0263 ± 0.0042 | 0.0247 ± 0.0015 | 0.0247 ± 0.0042
HUO3N1 BONE | 0.977 ± 0.032 | 0.972 ± 0.053 | 1.05 ± 0.022 | 1.04 ± 0.018 | 1.08 ± 0.044 | 1.05 ± 0.039 | 0.991 ± 0.052 | 0.974 ± 0.052 | 0.808 ± 0.025 | 0.74 ± 0.019 | 0.334 ± 0.011 | 0.23 ± 0.0085 | 0.129 ± 0.0068 | 0.115 ± 0.0063 | 0.094 ± 0.006 | 0.1 ± 0.018
JIMT1 BREAST | 1.02 ± 0.051 | 1.02 ± 0.016 | 1.03 ± 0.028 | 1.02 ± 0.022 | 1.06 ± 0.027 | 1.03 ± 0.046 | 0.811 ± 0.043 | 0.773 ± 0.047 | 0.618 ± 0.028 | 0.293 ± 0.024 | 0.16 ± 0.0026 | 0.119 ± 0.011 | 0.0905 ± 0.0083 | 0.0907 ± 0.0037 | 0.0727 ± 0.008 | 0.0808 ± 0.0025
JURKAT HAEMATOPOIETIC AND LYMPHOID TISSUE | 1.07 ± 0.016 | 1.09 ± 0.041 | 1.062 ± 0.0078 | 1.07 ± 0.021 | 1.05 ± 0.028 | 1.03 ± 0.025 | 1.02 ± 0.018 | 1.016 ± 0.0051 | 1.01 ± 0.024 | 0.675 ± 0.042 | 0.0347 ± 0.0021 | 0.03 ± 0.001 | 0.0297 ± 0.0011 | 0.0237 ± 0.00058 | 0.02 ± 0.001 | 0.0213 ± 0.00058
KPD BONE | 0.994 ± 0.06 | 1.01 ± 0.04 | 0.84 ± 0.36 | 0.81 ± 0.34 | 1.06 ± 0.1 | 1.04 ± 0.076 | 0.952 ± 0.04 | 0.934 ± 0.029 | 0.909 ± 0.093 | 0.889 ± 0.062 | 0.387 ± 0.029 | 0.365 ± 0.044 | 0.338 ± 0.015 | 0.315 ± 0.025 | 0.327 ± 0.011 | 0.313 ± 0.026
MCF7 BREAST | 0.935 ± 0.02 | 0.921 ± 0.032 | 0.924 ± 0.042 | 0.935 ± 0.023 | 0.965 ± 0.017 | 0.951 ± 0.046 | 0.979 ± 0.02 | 0.964 ± 0.027 | 0.863 ± 0.077 | 0.714 ± 0.016 | 0.432 ± 0.02 | 0.383 ± 0.0065 | 0.372 ± 0.01 | 0.356 ± 0.0077 | 0.333 ± 0.013 | 0.326 ± 0.012
MDAMB134 BREAST | 0.881 ± 0.014 | 0.974 ± 0.067 | 0.775 ± 0.21 | 0.873 ± 0.0099 | 1.2 ± 0.2 | 1.13 ± 0.023 | 1 ± 0.067 | 1.1 ± 0.064 | 0.936 ± 0.055 | 0.994 ± 0.033 | 0.904 ± 0.18 | 0.67 ± 0.13 | 0.587 ± 0.11 | 0.4935 ± 0.00071 | 0.491 ± 0.072 | 0.598 ± 0.077
MDAMB361 BREAST | 0.861 ± 0.02 | 0.851 ± 0.071 | 0.908 ± 0.025 | 1 ± 0.042 | 0.89 ± 0.14 | 0.859 ± 0.15 | 0.834 ± 0.092 | 0.834 ± 0.13 | 0.974 ± 0.073 | 0.952 ± 0.028 | 0.887 ± 0.04 | 0.707 ± 0.021 | 0.585 ± 0.041 | 0.593 ± 0.056 | 0.516 ± 0.046 | 0.546 ± 0.027
MDAMB453 BREAST | 1.09 ± 0.045 | 1.07 ± 0.078 | 1.19 ± 0.078 | 1.1 ± 0.024 | 1.14 ± 0.053 | 1.13 ± 0.087 | 1.06 ± 0.05 | 1.04 ± 0.039 | 0.988 ± 0.082 | 0.998 ± 0.096 | 0.382 ± 0.051 | 0.303 ± 0.02 | 0.164 ± 0.014 | 0.145 ± 0.016 | 0.131 ± 0.015 | 0.134 ± 0.015
MDAMB468 BREAST | 1.11 ± 0.097 | 1.08 ± 0.062 | 1.14 ± 0.087 | 1.11 ± 0.02 | 1.07 ± 0.099 | 1.028 ± 0.01 | 0.588 ± 0.026 | 0.503 ± 0.058 | 0.973 ± 0.024 | 0.771 ± 0.056 | 0.144 ± 0.018 | 0.0737 ± 0.0015 | 0.064 ± 0.001 | 0.0567 ± 0.0091 | 0.057 ± 0.0036 | 0.0563 ± 0.013
MG63 BONE | 1.02 ± 0.024 | 0.998 ± 0.013 | 1.09 ± 0.041 | 1.08 ± 0.038 | 1.11 ± 0.046 | 1.08 ± 0.027 | 0.999 ± 0.033 | 1.01 ± 0.033 | 0.901 ± 0.049 | 0.881 ± 0.021 | 0.263 ± 0.016 | 0.095 ± 0.01 | 0.0463 ± 0.0055 | 0.038 ± 0.0044 | 0.0287 ± 0.0015 | 0.03 ± 0.002
